Reference: US11168078B2, “Sulfoximine, sulfonimidamide, sulfondiimine and diimidosulfonamide compounds as inhibitors of indoleamine 2,3-dioxygenase” (Shanghai Fochon Pharmaceutical Co., Ltd., priority 2016, dated 2021)

Biological target: T1, IDO (Homo sapiens, UniProt P14902)
T1 construct: endogenous in cells; host or cells: HeLa cells stimulated with recombinant human interferon-gamma
Test: IDO Cell-Based NEK Green Assay (NFK Green, N-formyl kynurenine level)
Details: Hela cells, 1 mM L-Tryptophan, 100 ng/mL recombinant human interferon-gamma, 2 days, NFK Green fluorescence
Procedure: IDO Cell-Based NEK Green Assay
Materials: RPMI 1640 (phenol red free) (Invitrogen Cat. No. 11835030), Fetal Bovine Serum (Invitrogen Cat. No. 10099141), Penicillin-Streptomycin (Invitrogen Gibco Cat. No. 15140-122), Cellular assay kit (NTRC, Cat. No. NTRC-GSCell-1K), DMSO (Sigma, Cat. No. D2650), 384 wells_compound plate (Greiner, Cat. No. 781280), 384 wells_assay plate (Greiner, Cat. No. 781091)
The concentrations of test compounds varied from 5 μM to 0.76 nM with 3-fold dilution, 10 points, in duplicates.
Hela cells were seeded at 8,000 cells per well with RPMI/phenol red free media containing 10% FBS in a 384-well tissue culture plate. Mixture of compounds and 1 mM L-Tryptophan were added to cells; and then the recombinant human interferon-gamma was added at the final concentration of 100 ng/mL to activate IDO signaling. The cells were incubated for 2 days in 37° C. incubator with 5% CO2. After that, NFK Green was used to detect the N-formyl kynurenine level by following the commercial kit instruction. The fluorescent signal was measured by Envision plate Reader (excitation, 400/25; emission, 510/20). Curves are fit by XLFIT5 as % inhibition vs. log [compound concentration] using a 4 parameters logistic model 205.
Select compounds prepared as described above were assayed according to the biological procedures described herein.

T1 sequence (P14902 whole entry): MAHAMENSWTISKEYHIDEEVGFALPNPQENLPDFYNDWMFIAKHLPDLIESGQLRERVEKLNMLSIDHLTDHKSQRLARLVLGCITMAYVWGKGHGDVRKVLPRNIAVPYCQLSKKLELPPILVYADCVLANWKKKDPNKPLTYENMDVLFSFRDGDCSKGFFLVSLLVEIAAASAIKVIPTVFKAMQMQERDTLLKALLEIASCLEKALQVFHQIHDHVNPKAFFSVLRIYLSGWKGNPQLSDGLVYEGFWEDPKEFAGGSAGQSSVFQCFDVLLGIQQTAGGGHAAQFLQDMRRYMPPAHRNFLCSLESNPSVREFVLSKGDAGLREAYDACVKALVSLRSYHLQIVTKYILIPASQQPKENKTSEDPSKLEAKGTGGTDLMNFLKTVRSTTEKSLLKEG

Compound	IC50 [nM]
CCS(=O)(=NC)NCCNc1nonc1/C(=N/O)Nc1ccc(F)c(Cl)c1 (stereo not drawn) [Example 23, (Z)-N-(3-chloro-4-fluorophenyl)-N′-hydroxy-4-((2-(N′-methylethylsulfonoamidimidamido)ethyl)amino)-1,2,5-oxadiazole-3-carboximidamide]	33.2
N=S(=N)(CCNc1nonc1/C(=N/O)Nc1ccc(F)c(Br)c1)C1CC1 [Example 39, (Z)-N-(3-bromo-4-fluorophenyl)-4-{[2-(cyclopropyldiimino-λ^6-sulfanyl)ethyl]amino}-N′-hydroxy-1,2,5-oxadiazole-3-carboximidamide]	52.3
O=S1(=NCCCNc2nonc2/C(=N/O)Nc2ccc(F)c(Cl)c2)CCC1 [Example 32, (Z)-N-(3-chloro-4-fluorophenyl)-N′-hydroxy-4-((3-((1-oxido-1λ^6-thietan-1-ylidene)amino)propyl)amino)-1,2,5-oxadiazole-3-carboximidamide]	64.4
COCCS(=N)(=N)CCNc1nonc1/C(=N/O)Nc1ccc(F)c(Br)c1 [Example 41, (Z)-N-(3-bromo-4-fluorophenyl)-4-({2-[diimino(2-methoxyethyl)-λ^6-sulfanyl]ethyl}amino)-N′-hydroxy-1,2,5-oxadiazole-3-carboximidamide]	20.9
C#Cc1cc(N/C(=N\O)c2nonc2NCCNS(=N)(=O)CC)ccc1F (stereo not drawn) [Example 21, (Z)-4-((2-(ethylsulfonoamidimidamido)ethyl)amino)-N-(3-ethynyl-4-fluorophenyl)-N′-hydroxy-1,2,5-oxadiazole-3-carboximidamide]	16.3
CS(C)(=O)=NCCCNc1nonc1/C(=N/O)Nc1ccc(F)c(Br)c1 [Example 30, (Z)-N-(3-bromo-4-fluorophenyl)-4-((3-((dimethyl(oxo)-λ^6-sulfanylidene)amino)propyl)amino)-N′-hydroxy-1,2,5-oxadiazole-3-carboximidamide]	63.6
(Z)—N-(3-ethynyl-4-fluorophenyl)-N′-hydroxy-4-((2-(methylsulfonoamidimidamido)ethyl)amino)-1,2,5-oxadiazole-3-carboximidamide [Example 19]	13.3
CS(C)(=O)=NCCCNc1nonc1/C(=N/O)Nc1ccc(F)c(Cl)c1 [Example 31, (Z)-N-(3-chloro-4-fluorophenyl)-4-((3-((dimethyl(oxo)-λ^6-sulfanylidene)amino)propyl)amino)-N′-hydroxy-1,2,5-oxadiazole-3-carboximidamide]	112
N=S(=N)(CCO)CCNc1nonc1/C(=N/O)Nc1ccc(F)c(Br)c1 [Example 40, (Z)-N-(3-bromo-4-fluorophenyl)-N′-hydroxy-4-({2-[(2-hydroxyethyl)diimino-λ^6-sulfanyl]ethyl}amino)-1,2,5-oxadiazole-3-carboximidamide]	39.1
CCS(=N)(=O)NCCCNc1nonc1/C(=N/O)Nc1ccc(F)c(Br)c1 (stereo not drawn) [Example 24, (Z)-N-(3-bromo-4-fluorophenyl)-4-[(3-ethanesulfonoimidamidopropyl)amino]-N′-hydroxy-1,2,5-oxadiazole-3-carboximidamide]	8.2
CC(C)S(=N)(=N)CCNc1nonc1/C(=N/O)Nc1ccc(F)c(Br)c1 [Example 38, (Z)-N-(3-bromo-4-fluorophenyl)-4-({2-[diimino(propan-2-yl)-λ^6-sulfanyl]ethyl}amino)-N′-hydroxy-1,2,5-oxadiazole-3-carboximidamide]	13.3
CN=S(=O)(CCCNc1nonc1/C(=N/O)Nc1ccc(F)c(Br)c1)NC (stereo not drawn) [Example 17, (Z)—N-(3-bromo-4-fluorophenyl)-4-((3-(N,N′-dimethylsulfamidimidoyl)propyl)amino)-N′-hydroxy-1,2,5-oxadiazole-3-carboximidamide]	10.6
CCS(=N)(=N)CCCNc1nonc1/C(=N/O)Nc1ccc(F)c(Br)c1 [Example 37, (Z)-N-(3-bromo-4-fluorophenyl)-4-{[3-(ethyldiimino-λ^6-sulfanyl)propyl]amino}-N′-hydroxy-1,2,5-oxadiazole-3-carboximidamide]	20.5
CS(=N)(=N)CCNc1nonc1/C(=N/O)Nc1ccc(F)c(Br)c1 [Example 20, (Z)—N-(3-bromo-4-fluorophenyl)-4-({2-[diimino(methyl)-λ^6-sulfanyl]ethyl}amino)-N′-hydroxy-1,2,5-oxadiazole-3-carboximidamide]	12.2
CCS(=N)(=O)NCCNc1nonc1/C(=N/O)Nc1ccc(F)c(Cl)c1 (stereo not drawn) [Example 25, (Z)-N-(3-chloro-4-fluorophenyl)-4-((2-(ethylsulfonoamidimidamido)ethyl)amino)-N′-hydroxy-1,2,5-oxadiazole-3-carboximidamide]	17.5
CN=S(C)(=O)NCCNc1nonc1/C(=N/O)Nc1ccc(F)c(Cl)c1 (stereo not drawn) [Example 22, (Z)-N-(3-chloro-4-fluorophenyl)-N′-hydroxy-4-((2-(N′-methylmethylsulfonoamidimidamido)ethyl)amino)-1,2,5-oxadiazole-3-carboximidamide]	27.5
C#Cc1cc(N/C(=N\O)c2nonc2NCCN=S(C)(C)=O)ccc1F [Example 29, (Z)-4-((2-((dimethyl(oxo)-λ^6-sulfanylidene)amino)ethyl)amino)-N-(3-ethynyl-4-fluoro-phenyl)-N′-hydroxy-1,2,5-oxadiazole-3-carboximidamide]	26.5
CN=S(=O)(CCCNc1nonc1/C(=N/O)Nc1ccc(F)c(Cl)c1)NC (stereo not drawn) [Example 18, (Z)—N-(3-chloro-4-fluorophenyl)-4-((3-(N,N′-dimethylsulfamidimidoyl)propyl)amino)-N′-hydroxy-1,2,5-oxadiazole-3-carboximidamide]	23.2
CS(=N)(=O)NCCCNc1nonc1/C(=N/O)Nc1ccc(F)c(Cl)c1 (stereo not drawn) [Example 26, (Z)-N-(3-chloro-4-fluorophenyl)-N′-hydroxy-4-[(3-methanesulfonoimidamidopropyl)amino]-1,2,5-oxadiazole-3-carboximidamide]	14
CS(=N)(=N)CCCNc1nonc1/C(=N/O)Nc1ccc(F)c(Br)c1 [Example 36, (Z)-N-(3-bromo-4-fluorophenyl)-4-({3-[diimino(methyl)-λ^6-sulfanyl]propyl}amino)-N′-hydroxy-1,2,5-oxadiazole-3-carboximidamide]	46.7
C#Cc1cc(N/C(=N\O)c2nonc2NCCS(C)(=N)=N)ccc1F [Example 43, (Z)-4-({2-[diimino(methyl)-λ^6-sulfanyl]ethyl}amino)-N-(3-ethynyl-4-fluorophenyl)-N′-hydroxy-1,2,5-oxadiazole-3-carboximidamide]	238
CS(=N)(=N)CCNc1nonc1/C(=N/O)Nc1ccc(F)c(Cl)c1 [Example 35, (Z)-N-(3-chloro-4-fluorophenyl)-4-({2-[diimino(methyl)-λ^6-sulfanyl]ethyl}amino)-N′-hydroxy-1,2,5-oxadiazole-3-carboximidamide]	33.7
CCS(=N)(=N)CCNc1nonc1/C(=N/O)Nc1ccc(F)c(C#N)c1 [Example 42, (Z)-N-(3-cyano-4-fluorophenyl)-4-{[2-(ethyldiimino-λ^6-sulfanyl)ethyl]amino}-N′-hydroxy-1,2,5-oxadiazole-3-carboximidamide]	196
CCS(=O)(=NC)NCCNc1nonc1/C(=N/O)Nc1ccc(F)c(Br)c1 (stereo not drawn) [Example 33, (Z)-N-(3-bromo-4-fluorophenyl)-N′-hydroxy-4-((2-(N′-methylethylsulfonoamidimidamido)ethyl)amino)-1,2,5-oxadiazole-3-carboximidamide]	23.9
CCS(=N)(=N)CCNc1nonc1/C(=N/O)Nc1ccc(F)c(Br)c1 [Example 34, (Z)-N-(3-bromo-4-fluorophenyl)-4-{[2-(ethyldiimino-λ^6-sulfanyl)ethyl]amino}-N′-hydroxy-1,2,5-oxadiazole-3-carboximidamide]	9.7
CCS(=N)(=O)NCCCNc1nonc1/C(=N/O)Nc1ccc(F)c(Cl)c1 (stereo not drawn) [Example 27, (Z)-N-(3-chloro-4-fluorophenyl)-4-[(3-ethanesulfonoimidamidopropyl)amino]-N′-hydroxy-1,2,5-oxadiazole-3-carboximidamide]	16.5
C#Cc1cc(N/C(=N\O)c2nonc2NCCS(=N)(=N)CC)ccc1F [Example 44, (Z)-4-{[2-(ethyldiimino-λ^6-sulfanyl)ethyl]amino}-N-(3-ethynyl-4-fluorophenyl)-N′-hydroxy-1,2,5-oxadiazole-3-carboximidamide]	73.5
